Measurements reported in ChEMBL document CHEMBL1142381, “Design, synthesis, and biological evaluation of (hydroxyphenyl)naphthalene and -quinoline derivatives: potent and selective nonsteroidal inhibitors of 17beta-hydroxysteroid dehydrogenase type 1 (17beta-HSD1) for the treatment of estrogen-dependent diseases” (J Med Chem, 2008).

Columns and labels:
[1] = biological target: T1, 17-beta-hydroxysteroid dehydrogenase type 1 (Homo sapiens) (UniProt P14061); experiment: Inhibition of human recombinant 17beta-HSD1 expressed in Sf9 insect cells at 100 nM
T1 sequence (whole entry): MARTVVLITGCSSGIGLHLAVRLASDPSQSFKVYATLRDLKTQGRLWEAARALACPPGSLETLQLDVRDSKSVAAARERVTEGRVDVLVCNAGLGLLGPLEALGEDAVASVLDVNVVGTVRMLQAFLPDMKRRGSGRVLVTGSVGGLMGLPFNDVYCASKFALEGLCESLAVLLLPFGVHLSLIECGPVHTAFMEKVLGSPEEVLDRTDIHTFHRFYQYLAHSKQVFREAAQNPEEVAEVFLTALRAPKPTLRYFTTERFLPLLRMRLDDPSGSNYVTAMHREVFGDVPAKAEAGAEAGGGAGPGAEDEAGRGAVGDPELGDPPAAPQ

[2] = biological target: T1, 17-beta-hydroxysteroid dehydrogenase type 1 (Homo sapiens); experiment: Inhibition of human recombinant 17beta-HSD1 expressed in Sf9 insect cells at 1 uM
[3] = biological target: T2, 17-beta-hydroxysteroid dehydrogenase type 1 (Homo sapiens, UniProt P14061); experiment: Inhibition of human placental 17beta-HSD1
T2 sequence (P14061 whole entry): T1 sequence (whole entry)

[4] = biological target: T3, 17-beta-hydroxysteroid dehydrogenase type 2 (Homo sapiens, UniProt P37059); experiment: Inhibition of human placental 17beta-HSD2
T3 sequence (P37059 whole entry): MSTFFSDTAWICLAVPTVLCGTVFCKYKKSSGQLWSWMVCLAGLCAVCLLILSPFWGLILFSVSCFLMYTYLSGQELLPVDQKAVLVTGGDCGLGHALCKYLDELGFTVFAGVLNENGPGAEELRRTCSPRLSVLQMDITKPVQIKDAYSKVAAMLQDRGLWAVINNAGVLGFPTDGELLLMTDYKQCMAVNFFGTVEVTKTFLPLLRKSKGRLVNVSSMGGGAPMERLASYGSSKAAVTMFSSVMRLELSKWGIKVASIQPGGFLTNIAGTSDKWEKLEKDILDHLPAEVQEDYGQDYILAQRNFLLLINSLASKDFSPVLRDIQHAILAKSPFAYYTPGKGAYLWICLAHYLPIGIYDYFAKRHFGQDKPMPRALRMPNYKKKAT

[5] = species: Homo sapiens; experiment: Selectivity ratio for human placental 17beta-HSD1 over human placental 17beta-HSD2
[6] = biological target: T4, Estrogen receptor (Homo sapiens) (UniProt P03372); experiment: Displacement of [3H]estradiol from human recombinant ERalpha relative to estradiol
T4 sequence (whole entry): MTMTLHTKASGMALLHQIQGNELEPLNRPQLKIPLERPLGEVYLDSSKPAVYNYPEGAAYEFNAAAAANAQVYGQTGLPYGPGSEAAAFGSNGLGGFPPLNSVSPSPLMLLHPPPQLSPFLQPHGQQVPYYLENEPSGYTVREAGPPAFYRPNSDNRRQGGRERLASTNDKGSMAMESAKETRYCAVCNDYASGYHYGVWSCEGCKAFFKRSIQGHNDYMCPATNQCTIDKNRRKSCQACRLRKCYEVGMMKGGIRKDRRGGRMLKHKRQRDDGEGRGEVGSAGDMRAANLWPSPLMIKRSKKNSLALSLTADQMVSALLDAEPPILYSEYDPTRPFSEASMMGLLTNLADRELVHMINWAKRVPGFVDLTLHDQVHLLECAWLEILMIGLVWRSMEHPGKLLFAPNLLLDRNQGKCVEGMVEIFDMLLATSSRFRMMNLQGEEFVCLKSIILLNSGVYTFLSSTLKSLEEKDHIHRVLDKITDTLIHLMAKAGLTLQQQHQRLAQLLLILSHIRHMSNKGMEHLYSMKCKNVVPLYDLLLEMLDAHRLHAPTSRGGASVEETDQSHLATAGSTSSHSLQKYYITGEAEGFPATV

[7] = biological target: Estrogen receptor beta (Homo sapiens) (UniProt Q92731); experiment: Displacement of [3H]estradiol from human recombinant ERbeta relative to estradiol
Estrogen receptor beta (Homo sapiens), sequence (Q92731 whole entry): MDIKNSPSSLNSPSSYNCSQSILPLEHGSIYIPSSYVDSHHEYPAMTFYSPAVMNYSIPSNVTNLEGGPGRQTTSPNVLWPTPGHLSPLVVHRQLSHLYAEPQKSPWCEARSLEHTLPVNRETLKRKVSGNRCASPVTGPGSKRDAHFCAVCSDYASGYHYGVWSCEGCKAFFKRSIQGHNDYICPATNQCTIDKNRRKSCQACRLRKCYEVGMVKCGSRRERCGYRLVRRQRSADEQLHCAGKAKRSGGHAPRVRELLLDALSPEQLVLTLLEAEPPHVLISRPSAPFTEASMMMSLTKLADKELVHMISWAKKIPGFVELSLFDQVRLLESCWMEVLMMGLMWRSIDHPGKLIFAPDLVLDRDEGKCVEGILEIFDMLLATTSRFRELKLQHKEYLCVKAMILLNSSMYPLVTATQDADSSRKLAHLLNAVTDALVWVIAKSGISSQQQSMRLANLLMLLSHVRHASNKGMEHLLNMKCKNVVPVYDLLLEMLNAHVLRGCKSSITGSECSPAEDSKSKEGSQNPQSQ

[8] = Apparent permeability across human Caco-2 cell membrane; assay type: ADME, cell-based

Row | inhibition [1] [%] | inhibition [2] [%] | SMILES | also measured
1 | < 10 | 23 | Oc1cccc(-c2ccc3c(O)cccc3c2)c1 | –
2 | 14 | 63 | Oc1cccc(-c2ccc3cc(O)ccc3n2)c1 | –
3 | < 10 | < 10 | Nc1cccc(-c2ccc3cc(O)ccc3c2)c1 | –
4 | < 10 | 18 | Oc1cccc(-c2cnc3ccccc3c2)c1 | –
5 | 30 | 58 | Oc1cncc(-c2ccc3cc(O)ccc3c2)c1 | IC50 [3]: 1230 nM; IC50 [4]: > 10000 nM; Ratio IC50 [5]: > 8; RBA [6]: 0.01%; RBA [7]: 1%
6 | 24 | 57 | Oc1cccc(-c2cnc3cc(O)ccc3c2)c1 | –
7 | < 10 | < 10 | Oc1ccc2cc(-c3ccccc3)ccc2c1 | –
8 | < 10 | < 10 | Oc1ccc2cc(-c3ccccc3O)ccc2c1 | –
9 | < 10 | < 10 | Oc1ccc(-c2cnc3ccccc3c2)cc1 | –
10 | 16 | 62 | Oc1cccc(-c2ccc3ccc(O)cc3c2)c1 | –
11 | < 10 | 32 | Oc1ccc2cc(-c3cccnc3)ccc2c1 | –
12 | < 10 | < 10 | Oc1ccc(-c2cnc3cc(O)ccc3c2)cc1 | –
13 | 26 | 61 | Oc1cccc(-c2ccc3ccccc3c2)c1 | IC50 [3]: 2260 nM; IC50 [4]: 4010 nM; Ratio IC50 [5]: 1.8; RBA [6]: 0.01%; RBA [7]: 0.01%
14 | < 10 | < 10 | OCc1cccc(-c2ccc3cc(O)ccc3c2)c1 | –

Further lines, the compound ahead of its results:

Row | SMILES | inhibition [1] [%] | inhibition [2] [%] | also measured
15 | C[C@]12CC[C@@H]3c4ccc(O)cc4CC[C@H]3[C@@H]1CC(CCCCCCCCC(=O)OC[C@H]1O[C@@H](n3cnc4c(N)ncnc43)[C@H](O)[C@@H]1O)[C@@H]2O (stereo partly drawn) | – | – | IC50 [3]: 52 nM
16 | Oc1cccc(-c2cc3cc(O)ccc3[nH]2)c1 | < 10 | < 10 | –
17 | Oc1ccc(-c2ccc3c(O)cccc3c2)cc1 | – | – | IC50 [3]: 2420 nM; IC50 [4]: 302 nM; Ratio IC50 [5]: 0.1; RBA [6]: 5%; RBA [7]: 5%
18 | O=C(O)c1cccc(-c2ccc3cc(O)ccc3c2)c1 | 36 | 76 | –
19 | CC(=O)Nc1cccc(-c2ccc3cc(O)ccc3c2)c1 | < 10 | 19 | –
20 | OCc1ccc(-c2ccc3cc(O)ccc3c2)cc1 | < 10 | 13 | –
21 | Oc1ccc(-c2ccc3cc(O)ccc3c2)cc1 | < 10 | < 10 | –
22 | Oc1cccc(-c2ccc3cc(O)ccc3c2)c1 | – | – | IC50 [3]: 116 nM; RBA [6]: 0.2%; Papp [8]: 8.9 ×10⁻⁶ cm/s; RBA [7]: 0.8%
23 | O=[N+]([O-])c1cccc(-c2ccc3cc(O)ccc3c2)c1 | < 10 | < 10 | –
24 | O=C1CCCc2cc(-c3cccc(O)c3)ccc21 | < 10 | 23 | –
25 | Oc1ccc2cc(-c3ccsc3)ccc2c1 | < 10 | < 10 | –
26 | Oc1ccc2cc(-c3cccs3)ccc2c1 | < 10 | < 10 | –
27 | O=C(O)c1ccc(-c2ccc3cc(O)ccc3c2)cc1 | < 10 | < 10 | –
